This passage reports IC50 results from publication PMC4403079, “Flavonoids from Salvia chloroleuca with α-Amylsae and α-Glucosidase Inhibitory Effect” (Iranian Journal of Pharmaceutical Research : IJPR, 2015).

Experiment [1] has as its target T1, Porcine pancreas α-amylase type VI (Sus scrofa, UniProt P00690).
T1 construct: purchased Sigma-Aldrich
T1 sequence (P00690 16-511): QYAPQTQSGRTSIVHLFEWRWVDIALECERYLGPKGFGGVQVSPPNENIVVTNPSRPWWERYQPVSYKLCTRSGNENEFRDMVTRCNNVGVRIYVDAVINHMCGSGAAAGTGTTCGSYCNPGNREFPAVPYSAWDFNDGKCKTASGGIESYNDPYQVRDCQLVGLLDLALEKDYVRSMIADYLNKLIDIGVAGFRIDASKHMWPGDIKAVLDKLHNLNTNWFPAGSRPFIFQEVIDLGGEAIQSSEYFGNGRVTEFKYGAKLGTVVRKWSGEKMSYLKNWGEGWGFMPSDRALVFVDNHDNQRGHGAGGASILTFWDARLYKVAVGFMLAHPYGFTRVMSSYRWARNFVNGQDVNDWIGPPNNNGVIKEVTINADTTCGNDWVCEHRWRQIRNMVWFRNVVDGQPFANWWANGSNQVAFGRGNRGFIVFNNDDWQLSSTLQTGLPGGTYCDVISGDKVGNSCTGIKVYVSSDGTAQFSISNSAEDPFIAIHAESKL
As to the kind of experiment: biochemical. Here is the method:
(§1) Soluble starch, sodium dihydrogenphosphate (NaH2PO4), sodium potassium tartrate and sodium chloride were purchased from Merck. Analytical grade solvents for extraction and HPLC grade solvents for chromatography were from Scharlau (Barcelona, Spain). HPLC grade water was obtained by an EASY-pure II (Barnstead, Dubuque IA, USA) water purification system. Deuterated solvents were purchased from Armar Chemicals (Döttingen, Switzerland).
α-Amylase inhibition activity was assessed by a previously reported procedure with some modifications ([17]). […] Individual blanks were prepared to correct for the blank ground absorbance, where the enzyme was replaced with buffer as follows:
Corrected absorbance of test sample = Absorbance of sample –absorbance of blank
From the net absorbance obtained, the % (w/v) of maltose generated was calculated from the equation obtained from the maltose standard calibration curve (0–0.1%, w/v, maltose).
Control incubations, representing 100% enzyme activity, were conducted in the same manner replacing the plant extract with DMSO. The percentage of α-amylase inhibition was calculated by the following equations:
% reaction=mean of maltose in sample/mean of maltose in control×100
% α-amylase inhibition activity= 100 - % reaction
(§2) Statistical analyses were done using GraphPad Prism version 5.00 for Windows. Differences were evaluated by one-way analysis of variance (ANOVA) test completed by Tukey’s multicomparison test. Statistical signiﬁcance was declared at a p<0.05. All assays were performed at least in triplicate and the results were expressed as mean ± standard deviation (SD). IC50 values were determined by plotting a percent inhibition versus concentration curve for all assays.

In experiment [2] the target is T2, α-glucosidase type I from Baker's Yeast (Saccharomyces cerevisiae, UniProt P53341).
T2 construct: purchased Sigma-Aldrich
In words: biochemical. The procedure: as §1
The α-glucosidase inhibition was measured according to an earlier reported bioassay method ([18]). […] The mixed solution was incubated in 96-well plates at 37 °C for 15 min. After preincubation, the enzymatic reaction was initiated by adding 20 µL of 5 mM p-nitrophenyl-α-D-glucopyranoside solution in 0.1 M phosphate buffer (pH 6.9), and the reaction mixture was incubated for another 15 min at 37 °C. […] The reaction system without plant extracts was used as control and the system without α-glucosidase was used as blank for correcting the background absorbance. The inhibitory rate of sample on α-glucosidase was calculated by the following formula:
% Inhibition=control absorbance-sample absorbance/control absorbance×100
as §2

The mark [3] stands for this setting: isolated compounds, pH 6.8, 37 °C, 30 min, mean ± SD, read-out: α-amylase (IC50 µM).

Where two headings read alike, the source gives them in different places. Where only a bound is given, the exact number is not on record here.

By IC50 is commonly meant the point on the concentration scale where inhibition reaches its midpoint.

T2 sequence (P53341 whole entry): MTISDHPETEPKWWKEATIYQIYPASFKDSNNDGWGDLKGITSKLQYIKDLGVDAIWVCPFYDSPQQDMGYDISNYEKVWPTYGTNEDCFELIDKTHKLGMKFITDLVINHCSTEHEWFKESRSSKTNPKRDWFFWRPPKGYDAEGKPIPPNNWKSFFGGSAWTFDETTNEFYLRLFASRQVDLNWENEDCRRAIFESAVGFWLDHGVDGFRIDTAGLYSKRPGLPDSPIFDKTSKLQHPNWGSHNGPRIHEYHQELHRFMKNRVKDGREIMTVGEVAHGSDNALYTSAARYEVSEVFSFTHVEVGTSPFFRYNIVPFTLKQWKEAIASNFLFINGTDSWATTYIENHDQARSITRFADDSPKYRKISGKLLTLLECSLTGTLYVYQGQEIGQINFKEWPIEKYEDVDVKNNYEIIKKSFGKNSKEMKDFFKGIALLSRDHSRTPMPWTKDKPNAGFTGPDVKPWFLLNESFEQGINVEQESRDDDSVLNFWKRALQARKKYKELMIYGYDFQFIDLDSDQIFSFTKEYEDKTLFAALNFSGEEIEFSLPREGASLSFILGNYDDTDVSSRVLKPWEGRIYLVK

On to `O=c1cc(-c2ccc(O)c(O)c2)oc2cc(O[C@@H]3O[C@H](CO)[C@@H](O)[C@H](O)[C@H]3O)cc(O)c12` [Compound 1, luteolin 7-O-glucoside], for which the IC50 in experiment [1] (setting [3]) was 81.7 ± 2.3 µM; in experiment [2] it was 18.3 ± 1.7 µM.

For `O=C(O)[C@H]1O[C@@H](Oc2cc(O)c3c(=O)cc(-c4ccc(O)c(O)c4)oc3c2)[C@H](O)[C@@H](O)[C@@H]1O` [Compound 2, luteolin 7-O-glucuronide], the IC50 in experiment [1] (setting [3]) amounted to 61.5 ± 1.4 µM; in experiment [2], 14.7 ± 2.1 µM.

As for `COc1ccc(-c2cc(=O)c3c(O)cc(O[C@@H]4O[C@H](C(=O)O)[C@@H](O)[C@H](O)[C@H]4O)cc3o2)cc1O` [Compound 3, diosmetin 7-O-glucuronide], the IC50 worked out at 76.3 ± 0.6 µM in experiment [1] (setting [3]) and 17.1 ± 1.9 µM in experiment [2].

As for `COc1ccc(-c2cc(=O)c3c(O)c(OC)c(OC)cc3o2)cc1` [Compound 4, salvigenin], the IC50 in experiment [1] was above 100 µM; in experiment [2] (isolated compounds, pH 6.9, 37 °C, mean ± SD, read-out: α-glucosidase (IC50 µM)), above 50 µM.
